The assay concerns the target T1, human β3 adrenergic receptor (Homo sapiens, UniProt P13945).
T1 construct: expressed in transfected cells; host or cells: Chinese hamster ovary (CHO) cells, stably transfected
As to the kind of experiment: Beta-3 agonist in vitro functional assay: cAMP production (LANCE TR-FRET) in CHO cells stably transfected with the cloned β3 receptor. In kind it is cell-based. In a few lines:
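CHO cells stably expressing the cloned receptor, in HEPES-buffered HBSS with BSA and 0.6 mM IBMX, 6,000 cells/well, exposed to compound for 30 min at RT. cAMP read by LANCE TR-FRET against a cAMP standard curve. Isoproterenol defines maximal stimulation.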

The mark [1] stands for this setting: Table 10, Beta-3 agonist in vitro functional assay, read-out: Human β3 agonist functional activity.
Setting [2] is: Table 8, Beta-3 agonist in vitro functional assay, read-out: Human β3 agonist functional activity.
The mark [3] stands for this setting: Table 5, cAMP, CHO cells, read-out: Human β3 agonist functional activity.
Setting [4] is: Table 4, cAMP, CHO cells, read-out: Human β3 agonist functional activity.
Where [5] appears, read: Table 9, Beta-3 agonist in vitro functional assay, read-out: Human β3 agonist functional activity.
The mark [6] stands for this setting: Table 12, human β3 functional activity given as ranges, read-out: Human β3 agonist functional activity.

SMILES strings stand for the structures. Where two headings read alike, the source gives them in different places.

T1 sequence (P13945 whole entry): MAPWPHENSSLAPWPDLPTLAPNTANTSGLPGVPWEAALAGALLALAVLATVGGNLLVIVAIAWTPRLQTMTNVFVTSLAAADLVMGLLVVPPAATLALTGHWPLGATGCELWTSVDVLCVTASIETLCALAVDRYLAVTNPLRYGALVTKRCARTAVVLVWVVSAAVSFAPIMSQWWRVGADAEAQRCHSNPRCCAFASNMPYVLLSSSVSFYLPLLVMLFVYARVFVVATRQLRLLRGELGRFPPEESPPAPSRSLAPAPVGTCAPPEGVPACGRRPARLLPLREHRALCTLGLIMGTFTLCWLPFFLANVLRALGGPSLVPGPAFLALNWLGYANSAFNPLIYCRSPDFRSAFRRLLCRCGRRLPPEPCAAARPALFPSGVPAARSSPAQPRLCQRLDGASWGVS

Regarding `CC(C(=O)N1CCC(CO)CC1)N1CCN(C(=O)c2ccc(C[C@@H]3CC[C@H]([C@H](O)c4ccccc4)N3)cc2)CC1` (stereo partly drawn) [Example 490], the EC50 under setting [1] lay in the range of 10 to 99.9 nM.

With `CC(C(=O)N(C)C(C1CC1)C1CC1)N1CCN(C(=O)c2ccc(C[C@@H]3CC[C@H]([C@H](O)c4ccccc4)N3)cc2)CC1` (stereo partly drawn) [Example 523], the EC50 under setting [1] lay within 10 to 99.9 nM.

On to `O=C(c1ccc(C[C@@H]2CC[C@H]([C@H](O)c3ccccc3)N2)cc1)N1CCC2(CC1)C(=O)NCN2c1ccccc1` [Example 260], for which the EC50 under setting [2] is under 1 nM.

As for `O=C(c1ccc(C[C@@H]2CC[C@H]([C@H](O)c3ccccc3)N2)cc1)N1CCC(n2ccccc2=O)CC1` [Example 70], the EC50 under setting [3] lay in the range of 100 to 999 nM.

`CC1(C)CC2(CCCN(C(=O)c3ccc(C[C@@H]4CC[C@H]([C@H](O)c5ccccc5)N4)cc3)C2)C(=O)O1` (stereo partly drawn) [Example 41]: under setting [4], the EC50 was in the range of 10 to 99.9 nM.

Consider `O=C(c1ccc(C[C@@H]2CC[C@H]([C@H](O)c3ccccc3)N2)cc1)N1CCC(c2nc(-c3cnccn3)no2)CC1` [Example 83], for which the EC50 under setting [3] was in the range of 100 to 999 nM.

For the compound `O=C(c1ccc(C[C@@H]2CC[C@H]([C@H](O)c3ccccc3)N2)cc1)N1CCC(c2ccccc2)(c2nnn[nH]2)CC1` [Example 242], under setting [2], the EC50 is 10 to 99.9 nM.

Take `CC(C(=O)N1CC(O)(c2ccccc2)C1)N1CCN(C(=O)c2ccc(C[C@@H]3CC[C@H]([C@H](O)c4ccccc4)N3)cc2)CC1` (stereo partly drawn) [Example 474]: the EC50 under setting [1] lay in the range of 1 to 9.9 nM.

In the case of `CC(c1nnco1)N1CCN(C(=O)c2ccc(C[C@@H]3CC[C@H]([C@H](O)c4ccccc4)N3)cc2)CC1` (stereo partly drawn) [Example 421], under setting [5], the EC50 is 10 to 99.9 nM.

Take `CC(C)CCNC(=O)C(C)N1CCN(C(=O)c2ccc(C[C@@H]3CC[C@H]([C@H](O)c4ccccc4)N3)cc2)CC1` (stereo partly drawn) [Example 438]: under setting [1], the EC50 was in the range of 100 to 999 nM.

For `O=C(c1ccc(C[C@@H]2CC[C@H]([C@H](O)c3ccccc3)N2)cc1)N1CCC(Cn2cccn2)CC1` [Example 143], under setting [3], the EC50 fell in the range of 10 to 99.9 nM.

As to `CN1CCC2(CCN(C(=O)c3ccc(C[C@@H]4CC[C@H]([C@H](O)c5ccccc5)N4)cc3)CC2)C1=O` [Example 251], the EC50 under setting [2] was 100 to 999 nM.

For `O=C(c1ccc(C[C@@H]2CC[C@H]([C@H](O)c3ccccc3)N2)cc1)N1CCC(c2nnc(-c3cnccn3)[nH]2)CC1` [Example 81], the EC50 under setting [3] lay within 100 to 999 nM.

Regarding `COc1ccc2c(c1)C(=O)CC1(CCN(C(=O)c3ccc(C[C@@H]4CC[C@H]([C@H](O)c5ccccc5)N4)cc3)CC1)S2(=O)=O` [Example 339], under setting [2], the EC50 fell in the range of 1 to 9.9 nM.

Consider `O=C1NC(=O)C2(CCN(C(=O)c3ccc(C[C@@H]4CC[C@H]([C@H](O)c5cccnc5)N4)cc3)CC2)N1` [Example 268], for which the EC50 under setting [2] lay within 10 to 99.9 nM.

Take `O=C(c1ccc(C[C@@H]2CC[C@H]([C@H](O)c3cccnc3)N2)cc1)N1CCC2c3ccccc3OC2C1` (stereo partly drawn) [Example 57]: under setting [4], the EC50 lay within 1 to 9.9 nM.

With `O=C1NC2(CCN(C(=O)c3ccc(C[C@@H]4CC[C@H]([C@H](O)c5ccccc5)N4)cc3)CC2)Oc2ccccc21` [Example 332], under setting [2], the EC50 lay in the range of 10 to 99.9 nM.

In the case of `Cc1nnc(C(C)N2CCN(C(=O)c3ccc(C[C@@H]4CC[C@H]([C@H](O)c5ccccc5)N4)cc3)CC2)o1` (stereo partly drawn) [Example 424], the EC50 under setting [5] is 100 to 999 nM.

Consider `O=C(c1ccc(C[C@@H]2CC[C@H]([C@H](O)c3cccnc3)N2)cc1)N1CCC(S(=O)(=O)c2cccc(F)c2)CC1` [Example 131], for which, under setting [3], the EC50 is 100 to 999 nM.

`CC1(c2nn[nH]n2)CCN(C(=O)c2ccc(C[C@@H]3CC[C@H]([C@H](O)c4ccccc4)N3)cc2)CC1` [Example 243]: the EC50 under setting [2] lay in the range of 100 to 999 nM.

Regarding `CC(C(=O)NCCC1CC1)N1CCN(C(=O)c2ccc(C[C@@H]3CC[C@H]([C@H](O)c4ccccc4)N3)cc2)CC1` (stereo partly drawn) [Example 448], the EC50 under setting [1] fell in the range of 10 to 99.9 nM.

Turning to `O=C(c1ccc(C[C@@H]2CC[C@H]([C@H](O)c3ccccc3)N2)cc1)N1CCC(Oc2ccccn2)CC1` [Example 152], the EC50 under setting [3] is 10 to 99.9 nM.

Consider `CC1OC(=O)C2(CCN(C(=O)c3ccc(C[C@@H]4CC[C@H]([C@H](O)c5ccccc5)N4)cc3)CC2)C1C` (stereo partly drawn) [Example 297], for which the EC50 under setting [2] lay in the range of 1 to 9.9 nM.

As for `CC(C(=O)N1CCC(C2CC2)CC1)N1CCN(C(=O)c2ccc(C[C@@H]3CC[C@H]([C@H](O)c4ccccc4)N3)cc2)CC1` (stereo partly drawn) [Example 494], the EC50 under setting [1] is 10 to 99.9 nM.

Turning to `Cc1nonc1N1CCN(C(=O)c2ccc(C[C@@H]3CC[C@H]([C@H](O)c4ccccc4)N3)cc2)CC1` [Example 380], the EC50 under setting [5] lay in the range of 10 to 99.9 nM.

For the compound `O=C(c1ccc(C[C@@H]2CC[C@H]([C@H](O)c3cccnc3)N2)cc1)N1CCC(S(=O)(=O)c2ccccc2F)CC1` [Example 133], the EC50 under setting [3] fell in the range of 10 to 99.9 nM.

With `CC(C(=O)NC1CCOC1)N1CCN(C(=O)c2ccc(C[C@@H]3CC[C@H]([C@H](O)c4ccccc4)N3)cc2)CC1` (stereo partly drawn) [Example 457], the EC50 under setting [1] lay in the range of 10 to 99.9 nM.

Regarding `O=C(c1ccc(C[C@@H]2CC[C@H]([C@H](O)c3ccccc3)N2)cc1)N1CCN(S(=O)(=O)c2ccccc2)CC1` [Example 346], the EC50 under setting [5] was 10 to 99.9 nM.

Turning to `O=C(c1ccc(C[C@@H]2CC[C@H]([C@H](O)c3ccccc3)N2)cc1)N1CC2CC(n3ccnn3)CC2C1` (stereo partly drawn) [Example 21], the EC50 under setting [4] was 10 to 99.9 nM.

As for `CCOC(=O)C1CCN(C(=O)c2ccc(C[C@@H]3CC[C@H]([C@H](O)c4ccccc4)N3)cc2)C1` (stereo partly drawn) [Example 6], under setting [4], the EC50 was in the range of 100 to 999 nM.

Turning to `O=C(c1ccc(C[C@@H]2CC[C@H]([C@H](O)c3ccccc3)N2)cc1)N1CCN(Cc2cnccn2)CC1` [Example 426], the EC50 under setting [5] was in the range of 10 to 99.9 nM.

For `O=C(c1ccc(C[C@@H]2CC[C@H]([C@H](O)c3ccccc3)N2)cc1)N1CCN(c2ccc3c(c2)OCCO3)CC1` [Example 354], the EC50 under setting [5] was in the range of 100 to 999 nM.

Take `Cn1nnnc1C1CCN(C(=O)c2ccc(C[C@@H]3CC[C@H]([C@H](O)c4ccccc4)N3)cc2)CC1` [Example 108]: the EC50 under setting [3] fell in the range of 1 to 9.9 nM.

Regarding `O=C(c1ccc(C[C@@H]2CC[C@H]([C@H](O)c3ccccc3)N2)cc1)N1CCC2(CCCC2=O)CC1` [Example 316], the EC50 under setting [2] fell in the range of 1 to 9.9 nM.

With `CC(C(=O)NCc1cnoc1)N1CCN(C(=O)c2ccc(C[C@@H]3CC[C@H]([C@H](O)c4ccccc4)N3)cc2)CC1` (stereo partly drawn) [Example 461], under setting [1], the EC50 was in the range of 10 to 99.9 nM.

For `O=C1OCCC1N1CCN(C(=O)c2ccc(CC3CCC(C(O)c4ccccc4)N3)cc2)CC1` (single isomer, unassigned) [Example 604], the EC50 under setting [6] was 1 to 9.9 nM.

Regarding `O=C(c1ccc(C[C@@H]2CC[C@H]([C@H](O)c3ccccc3)N2)cc1)N1CCC(S(=O)(=O)c2ccccc2F)CC1` [Example 132], the EC50 under setting [3] is 1 to 9.9 nM.

As for `CS(=O)(=O)C1CCN(C(=O)c2ccc(C[C@@H]3CC[C@H]([C@H](O)c4cccnc4)N3)cc2)CC1` [Example 123], under setting [3], the EC50 fell in the range of 100 to 999 nM.

For the compound `COc1ccc2c(c1)C(=O)CC1(CCN(C(=O)c3ccc(C[C@@H]4CC[C@H]([C@H](O)c5ccccc5)N4)cc3)CC1)S2` [Example 328], the EC50 under setting [2] was in the range of 1 to 9.9 nM.

As for `O=C(c1ccc(C[C@@H]2CC[C@H]([C@H](O)c3ccccc3)N2)cc1)N1CCC(Cn2ncccc2=O)CC1` [Example 148], the EC50 under setting [3] is 10 to 99.9 nM.

Consider `O=C(c1ccc(C[C@@H]2CC[C@H]([C@H](O)c3ccccc3)N2)cc1)N1C[C@@H]2C(n3cnnn3)[C@@H]2C1` (stereo partly drawn) [Example 169, (R)-phenyl[(2R,5S)-5-(4-{[(1R,5S,6r)-6-(1H-tetraol-1-yl)-3-azabicyclo[3.1.0]hex-3yl]carbonyl}benzyl)pyrrolidine-2-yl]methanol], for which the EC50 (given as a range, cAMP, CHO cells, read-out: human β3 functional activity) lay in the range of 1 to 9.9 nM.

Turning to `C[C@@H](c1ccccn1)N1C2CCC1C1CCC2N1C(=O)c1ccc(C[C@@H]2CC[C@H]([C@H](O)c3ccccc3)N2)cc1` [Example 526], the EC50 (human β3 functional activity) fell in the range of 10 to 99.9 nM.

For `O=C1OC2(CCN(C(=O)c3ccc(C[C@@H]4CC[C@H]([C@H](O)c5ccccc5)N4)cc3)CC2)c2ccccc21` [Example 283], under setting [2], the EC50 was in the range of 10 to 99.9 nM.

Take `CC(C(=O)NCc1ncco1)N1CCN(C(=O)c2ccc(C[C@@H]3CC[C@H]([C@H](O)c4ccccc4)N3)cc2)CC1` (stereo partly drawn) [Example 462]: the EC50 under setting [1] was in the range of 10 to 99.9 nM.

Turning to `O=C(c1ccc(C[C@@H]2CC[C@H]([C@H](O)c3cccnc3)N2)cc1)N1CCC2Oc3ccccc3OC2C1` (stereo partly drawn) [Example 59], under setting [4], the EC50 lay within 10 to 99.9 nM.

Turning to `O=C(c1ccc(C[C@@H]2CC[C@H]([C@H](O)c3ccccc3)N2)cc1)N1CCN(c2ccccn2)CC1` [Example 355], under setting [5], the EC50 was in the range of 100 to 999 nM.

As for `CC(C(=O)N1CCc2ccc(F)cc2C1)N1CCN(C(=O)c2ccc(C[C@@H]3CC[C@H]([C@H](O)c4ccccc4)N3)cc2)CC1` (stereo partly drawn) [Example 509], the EC50 under setting [1] was 1 to 9.9 nM.

With `Cc1nc2c(o1)CN(C(=O)C(C)N1CCN(C(=O)c3ccc(C[C@@H]4CC[C@H]([C@H](O)c5ccccc5)N4)cc3)CC1)CC2` (stereo partly drawn) [Example 504], the EC50 under setting [1] is 1 to 9.9 nM.

As to `O=C(c1ccc(C[C@@H]2CC[C@H]([C@H](O)c3ccccc3)N2)cc1)N1CC2CCC1CN2Cc1ccccn1` (stereo partly drawn) [Example 536], the EC50 (Table 11, cAMP, CHO cells, read-out: Human β3 agonist functional activity) was 100 to 999 nM.

With `O=C(c1ccc(CC2CCC(C(O)c3ccccc3)N2)cc1)N1CCC2(CC1)CC(C(F)(F)F)OC2=O` (single isomer, unassigned) [Example 566], the EC50 under setting [6] lay within 10 to 99.9 nM.

Regarding `CC1(Cc2ccc(F)cc2)CC2(CCN(C(=O)c3ccc(C[C@@H]4CC[C@H]([C@H](O)c5ccccc5)N4)cc3)CC2)OC1=O` (stereo partly drawn) [Example 278], the EC50 under setting [2] was under 1 nM.

On to `O=C(c1ccc(C[C@@H]2CC[C@H]([C@H](O)c3ccccc3)N2)cc1)N1CCC2(CC1)C(=O)NCC2c1ccccn1` (stereo partly drawn) [Example 266], for which the EC50 under setting [2] fell in the range of 1 to 9.9 nM.

With `CC(C(=O)N1CCC(O)C1)N1CCN(C(=O)c2ccc(C[C@@H]3CC[C@H]([C@H](O)c4ccccc4)N3)cc2)CC1` (stereo partly drawn) [Example 477], under setting [1], the EC50 is 100 to 999 nM.

Regarding `O=C(c1ccc(C[C@@H]2CC[C@H]([C@H](O)c3ccccc3)N2)cc1)N1CCN(Cc2ccncn2)CC1` [Example 427], the EC50 under setting [5] fell in the range of 10 to 99.9 nM.
